In patent US10125150B2, “Crystalline forms of a PI3K inhibitor” (Incyte Corporation, priority 2015, dated 2018):

Key:
[1] = molecular target: human JAK1 (a.a. 837-1142) (Homo sapiens, UniProt P23458); assay: In vitro JAK kinase assay (Example D), JAK1; type: biochemical; conditions: 1 mM ATP
JAK2 (a.a. 828-1132) = JAK2 (a.a. 828-1132) (Homo sapiens (Human), UniProt O60674); assay: In vitro JAK kinase assay (Example D), JAK2; type: biochemical; conditions: ratio JAK2/JAK1 of IC50s, 1 mM ATP
JAK2 (a.a. 828-1132), sequence (O60674 828-1132): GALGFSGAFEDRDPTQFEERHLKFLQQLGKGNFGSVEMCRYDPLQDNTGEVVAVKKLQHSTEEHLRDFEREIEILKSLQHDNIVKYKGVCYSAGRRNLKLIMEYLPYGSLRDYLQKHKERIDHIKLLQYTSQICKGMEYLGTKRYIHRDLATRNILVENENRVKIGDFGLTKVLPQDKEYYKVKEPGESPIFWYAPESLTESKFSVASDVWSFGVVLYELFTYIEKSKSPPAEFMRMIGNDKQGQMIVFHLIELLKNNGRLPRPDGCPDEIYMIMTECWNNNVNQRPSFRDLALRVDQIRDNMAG

IC50 [1] | JAK2/JAK1 (JAK2 (a.a. 828-1132)) | Compound
< 0.1 µM | >10 | C[C@@H](O)c1nc2cnc3ccsc3c2n1[C@H]1CC[C@H](CC#N)OC1 [Form 1, ((2R,5S)-5-{2-[(1R)-1-hydroxyethyl]-1H-imidazo[4,5-d]thieno[3,2-b]pyridin-1-yl}tetrahydro-2H-pyran-2-yl)acetonitrile]
< 0.01 µM | >10 | N#CCC1(n2cc(-c3ncnc4[nH]ccc34)cn2)CN(C2CCN(C(=O)c3ccnc(C(F)(F)F)n3)CC2)C1 [Form 9, [3-[4-(7H-pyrrolo[2,3-d]pyrimidin-4-yl)-1H-pyrazol-1-yl]-1-(1-{[2-(trifluoromethyl)pyrimidin-4-yl]carbonyl}piperidin-4-yl)azetidin-3-yl]acetonitrile]
< 0.01 µM | >10 | N#CCC1(n2cc(-c3ncnc4[nH]ccc34)cn2)CN([C@H]2CC[C@@H](Oc3cc(CN4CC[C@H](O)C4)cc(C(F)(F)F)n3)CC2)C1 [Form 22, {1-(cis-4-{[4-{[(3S)-3-hydroxypyrrolidin-1-yl]methyl}-6-(trifluoromethyl)pyridin-2-yl]oxy}cyclohexyl)-3-[4-(7H-pyrrolo[2,3-d]pyrimidin-4-yl)-1H-pyrazol-1-yl]azetidin-3-yl}acetonitrile]
< 0.01 µM | >10 | N#CCC(CN1CCN(C(=O)c2ccc(C#N)cc2F)CC1)n1cc(-c2ncnc3[nH]ccc23)cn1 (stereo not drawn) [Form 5, 4-[(4-{3-cyano-2-[4-(7H-pyrrolo[2,3-d]pyrimidin-4-yl)-1H-pyrazol-1-yl]propyl}piperazin-1-yl)carbonyl]-3-fluorobenzonitrile]
< 0.01 µM | >10 | N#CCC1(n2cc(-c3ncnc4[nH]ccc34)cn2)CN(C2CCN(C(=O)c3ccnc(C(F)(F)F)c3F)CC2)C1 [Form 7, {1-{1-[3-Fluoro-2-(trifluoromethyl)isonicotinoyl]piperidin-4-yl}-3-[4-(7H-pyrrolo[2,3-d]pyrimidin-4-yl)-1H-pyrazol-1-yl]azetidin-3-yl}acetonitrile]
< 0.01 µM | >10 | N#CCC1(n2cc(-c3ncnc4[nH]ccc34)cn2)CN([C@H]2CC[C@@H](Oc3cc(CN4CC[C@@H](O)C4)cc(C(F)(F)F)n3)CC2)C1 [Form 21, {1-(cis-4-{[4-{[(3R)-3-hydroxypyrrolidin-1-yl]methyl}-6-(trifluoromethyl)pyridin-2-yl]oxy}cyclohexyl)-3-[4-(7H-pyrrolo[2,3-d]pyrimidin-4-yl)-1H-pyrazol-1-yl]azetidin-3-yl}acetonitrile]
< 0.01 µM | >10 | N#CCC(C1CCN(c2nc3cccnc3o2)C1)n1cc(-c2ncnc3[nH]ccc23)cn1 (stereo not drawn) [Form 4, 3-(1-[1,3]oxazolo[5,4-b]pyridin-2-ylpyrrolidin-3-yl)-3-[4-(7H-pyrrolo[2,3-d]pyrimidin-4-yl)-1H-pyrazol-1-yl]propanenitrile]
< 0.01 µM | >10 | C[C@H](O)CNCc1cc(OC2CCN([C@H]3C[C@](CC#N)(n4cc(-c5ncnc6[nH]ccc56)cn4)C3)CC2)nc(C(F)(F)F)c1 [Form 25, {trans-3-(4-([4-({[(2S)-2-hydroxypropyl]amino}methyl)-6-(trifluoromethyl)pyridin-2-yl]oxy}piperidin-1-yl)-1-[4-(7H-pyrrolo[2,3-d]pyrimidin-4-yl)-1H-pyrazol-1-yl]cyclobutyl}acetonitrile]
< 0.01 µM | >10 | N#CC[C@]1(n2cc(-c3ncnc4[nH]ccc34)cn2)C[C@H](N2CCC(Oc3cc(CN4CCC[C@@H]4CO)cc(C(F)(F)F)n3)CC2)C1 [Form 13, {trans-3-(4-{[4-{[(2R)-2-(hydroxymethyl)pyrrolidin-1-yl]methyl}-6-(trifluoromethyl)pyridin-2-yl]oxy}piperidin-1-yl)-1-[4-(7H-pyrrolo[2,3-d]pyrimidin-4-yl)-1H-pyrazol-1-yl]cyclobutyl}acetonitrile]
